Source: patent US11534440B2, “Combination therapy with Axl inhibitor and immune checkpoint modulator or oncolytic virus” (BerGenBio ASA, priority 2015, dated 2022)
“Also recorded” adds a separate entry of the source.

Experiments:
Lewis Lung tumors = assay: Subcutaneous Lewis Lung syngeneic tumor model: survival, tumor burden, metastasis; format: in vivo; settings: Lewis Lung tumor bearing C57Bl/6 mice; BGB324 combined with PD-1/PD-L1 compared to PD-1/PD-L1 alone
Description: • Species/Strain: Balb/c ABomTac • Source: Taconic Farms • Sex: Female • Weight: 20-30 grams on the day of implantation • Age: at least 6 weeks old on the day of randomization • Animal Identification: Cage number and ear notching Experimental Animals for Syngeneic Lewis Lung Model: • Species/Strain: C57BL/6JOlaHsd • Source: Harlan Laboratories • Sex: Female • Weight: 20-30 grams on the day of implantation • Age: at least 6 weeks old on the day of randomization • Animal Identification: Cage number and ear notching Cells and Materials: • RPMI-1640 (Sigma, Cat. # R8758) supplemented with 10% fetal bovine serum (FBS), L-glutamine (4 mM), streptomycin (5 μg/ml) and penicillin (5 U/ml). • BD Matrigel™ Basement Membrane Matrix Growth Factor Reduced, BD Bioscience, Cat. #354230, Lot #2229975. • 0.25% Trypsin-EDTA, Sigma, Cat. # SLBD8049. Drugs Vehicle: 0.5% HPMC/0.1% Tween 80 vehicle for BGB324. Sterile PBS for immune checkpoint inhibitors. IgG: InVivoMAb Polyclonal Armenian Hamster IgG, BE0091, BioXCell, Isotype control for IP injections. BGB324: Manufacturer: Almac Group, N Ireland, batch Q1080. BGB324 powder was stored at room temperature. […] BGB324 was diluted in vehicle to 5 mg/ml dosing solution and administered to the mice immediately. BGB324 solution was freshly prepared every day. […]

[1] = tested on: Cytotoxic T cells (CTLs), Natural Killer cells, macrophages, neutrophils, mMDSCs; assay: Immune cell sub-populations in tumors and spleens, 4T1 model; format: in vivo, Balb/c mice
Description: • Species/Strain: Balb/c ABomTac • Source: Taconic Farms • Sex: Female • Weight: 20-30 grams on the day of implantation • Age: at least 6 weeks old on the day of randomization • Animal Identification: Cage number and ear notching Experimental Animals for Syngeneic Lewis Lung Model: • Species/Strain: C57BL/6JOlaHsd • Source: Harlan Laboratories • Sex: Female • Weight: 20-30 grams on the day of implantation • Age: at least 6 weeks old on the day of randomization • Animal Identification: Cage number and ear notching Cells and Materials: • RPMI-1640 (Sigma, Cat. # R8758) supplemented with 10% fetal bovine serum (FBS), L-glutamine (4 mM), streptomycin (5 μg/ml) and penicillin (5 U/ml). • BD Matrigel™ Basement Membrane Matrix Growth Factor Reduced, BD Bioscience, Cat. #354230, Lot #2229975. • 0.25% Trypsin-EDTA, Sigma, Cat. # SLBD8049. Drugs Vehicle: 0.5% HPMC/0.1% Tween 80 vehicle for BGB324. Sterile PBS for immune checkpoint inhibitors. IgG: InVivoMAb Polyclonal Armenian Hamster IgG, BE0091, BioXCell, Isotype control for IP injections. BGB324: Manufacturer: Almac Group, N Ireland, batch Q1080. BGB324 powder was stored at room temperature. The BGB324 dosage given was well below the MTD in mice (023-TR-324). […] BGB324 was diluted in vehicle to 5 mg/ml dosing solution and administered to the mice immediately. BGB324 solution was freshly prepared every day. Anti-mCTLA-4 (CD152) monoclonal antibody (CTAA-4): Syrian Hamster IgG, clone 9H10 (BioXCell, Cat. # BE0131). Anti-mPD-1 monoclonal antibody (PD-1): rat IgG2a, clone RMP1-14 (BioXCell, Cat. # BE0146). Anti-mPD-L1 monoclonal antibody (PD-L1): rat IgG2b, clone 10F.9G2 (BioXCell, Cat # BE0101). Methods Cell Culture 4T1 mammary adenocarcinoma cells and Non Small Cell Lung Cancer (NSCLC) Lewis Lung (LL2) were propagated at sub-confluence and split on a regular basis every 3rd day. After trypsinization, the cells were washed once in RPMI/FBS (7 min at 1200 rpm) and re-suspended at 4×10^6 cells/ml (4T1 cells) or 2.5×10^6 per ml (LL2 cells) in a mixture of serum-free RPMI medium and Matrigel (1:1). Subcutaneous Tumor Inoculation Each animal was weighed before cell implantation. Injection of cells was performed after anesthetizing of mice by inhalation of sevoflurane. Anesthesia was induced with 8% sevoflurane and maintained at 4%. During injection, the mouse was placed on a heating pad. For implantation of 4T1 tumors: under a suitable depth of unconsciousness, each mouse was shaved and skin surrounding the region was washed with Chlorhexidine (1 mg/ml) with use of sterile gauze. […] Assignment of Experimental Groups Before commencement of treatment, the animals were weighted and the tumor volume was measured twice a week. […]

[2] = tested on: Cytotoxic T cells (CTLs), Natural Killer cells (NK), mMDSCs; assay: Immune cell sub-populations in tumors, Lewis Lung model; format: in vivo, C57Bl/6 mice; settings: BGB324 combined with PD-1/PD-L1 compared to PD-1/PD-L1 alone, day 21
Description: • Species/Strain: Balb/c ABomTac • Source: Taconic Farms • Sex: Female • Weight: 20-30 grams on the day of implantation • Age: at least 6 weeks old on the day of randomization • Animal Identification: Cage number and ear notching Experimental Animals for Syngeneic Lewis Lung Model: • Species/Strain: C57BL/6JOlaHsd • Source: Harlan Laboratories • Sex: Female • Weight: 20-30 grams on the day of implantation • Age: at least 6 weeks old on the day of randomization • Animal Identification: Cage number and ear notching Cells and Materials: • RPMI-1640 (Sigma, Cat. # R8758) supplemented with 10% fetal bovine serum (FBS), L-glutamine (4 mM), streptomycin (5 μg/ml) and penicillin (5 U/ml). • BD Matrigel™ Basement Membrane Matrix Growth Factor Reduced, BD Bioscience, Cat. #354230, Lot #2229975. • 0.25% Trypsin-EDTA, Sigma, Cat. # SLBD8049. Drugs Vehicle: 0.5% HPMC/0.1% Tween 80 vehicle for BGB324. Sterile PBS for immune checkpoint inhibitors. IgG: InVivoMAb Polyclonal Armenian Hamster IgG, BE0091, BioXCell, Isotype control for IP injections. BGB324: Manufacturer: Almac Group, N Ireland, batch Q1080. BGB324 powder was stored at room temperature. […] BGB324 was diluted in vehicle to 5 mg/ml dosing solution and administered to the mice immediately. BGB324 solution was freshly prepared every day. Anti-mCTLA-4 (CD152) monoclonal antibody (CTAA-4): Syrian Hamster IgG, clone 9H10 (BioXCell, Cat. # BE0131). […] Anti-mPD-L1 monoclonal antibody (PD-L1): rat IgG2b, clone 10F.9G2 (BioXCell, Cat # BE0101). Methods Cell Culture 4T1 mammary adenocarcinoma cells and Non Small Cell Lung Cancer (NSCLC) Lewis Lung (LL2) were propagated at sub-confluence and split on a regular basis every 3rd day. After trypsinization, the cells were washed once in RPMI/FBS (7 min at 1200 rpm) and re-suspended at 4×10^6 cells/ml (4T1 cells) or 2.5×10^6 per ml (LL2 cells) in a mixture of serum-free RPMI medium and Matrigel (1:1). Subcutaneous Tumor Inoculation Each animal was weighed before cell implantation. Injection of cells was performed after anesthetizing of mice by inhalation of sevoflurane. […]

[3] = 4T1 model, BGB324 combined with CTLA-4/PD-1 compared to CTLA-4/PD-1 alone, day 11

Nc1nc(Nc2ccc3c(c2)CC[C@@H](N2CCCC2)CC3)nn1-c1cc2c(nn1)-c1ccccc1CCC2 [BGB324, 1-(6,7-dihydro-5H-benzo[6,7]cyclohepta[1,2-c]pyridazin-3-yl)-N^3-((7-(S)-pyrrolidin-1-yl)-6,7,8,9-tetrahydro-5H-benzo[7]annulene-2-yl)-1H-1,2,4-triazole-3,5-diamine]
survival (tumor reaching 500 mm^3 as endpoint) (Lewis Lung tumors): significantly prolonged survival
tumor burden (Lewis Lung tumors): reduced tumor burden
number of CTLs in the spleen ([1]; 4T1 model, 43 days after treatment initiation, compared to immune check point inhibitors alone): further enhanced the number of CTLs
presence of Natural Killer cells, macrophages and neutrophils in spleens [1, 3]: enhanced presence of NK cells, macrophages and PMN neuotrophiles
presence of pro-tumorigenic mMDSCs in spleens [1, 3]: reduction in the presence of pro-tumorigenic mMDSC
tumor infiltration of Cytotoxic T cells (CTLs) ([1]; 4T1 tumors, BGB324 combined with CTLA-4/PD-1 compared to CTLA-4/PD-1 alone): enhanced CTL tumor infiltration; also recorded: further enhanced tumour infiltration of CTLs
presence of pro-tumorigenic mMDSCs ([2]; Lewis Lung model): reduction in the presence of pro-tumorigenic mMDSC
tumor infiltration / presence of Natural Killer cells (NK) ([2]; Lewis Lung tumors): enhanced presence of NK cells
tumor infiltration of Cytotoxic T cells (CTLs) ([2]; Lewis Lung tumors): enhanced CTL tumor infiltration
